Results as given in ChEMBL document CHEMBL1201862, “PubChem BioAssay data set” (2004).
One block for each molecule: values may come before it. Active and inactive are the calls of the source. Rule as the data show it, for most assays here: actives have a measured EC50 and inactives only a lower limit.

Tests used:
[1] = fluconazole-exposed Candida albicans growth modulators – fluorescence, retest, confirmation (AID 2467); format: functional, cell-based
[2] = NIH-3T3 fibroblast cytotoxicity, dose response, cytotoxicity control, cell-based, fluorescence, Alamar Blue, secondary assay (AID 2327); format: functional;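 also: NIH-3T3 mouse fibroblasts cultured with fluconazole at 8 µg/mL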
H9c2 = test: cells; format: functional, cell-based; settings: Rattus norvegicus, H9c2, Myocardium;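 also: confirmatory concentration-response retest of ultra-high-throughput screening hits for modulation of myocardial damage; cell death induced by hydrogen peroxide oxidative stress; compound pretreatment for 60 min then peroxide exposure for 2 h; potency is for protecting the cells against peroxide damage rather than for killing them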
[3] = reduction of Shn3 3'UTR-driven luciferase in osteoblasts – cell-based, Clone20 osteoblasts, firefly luciferase, cherry-picked, dose response (AID 624132); format: functional;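 also: firefly luciferase luminescence from reporter carrying the Shn3 3'UTR in osteoblasts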
[4] = DRD fibroblast viability loss – cell-based, non-viral oncogenic, luminescence, dose response (AID 1934); format: functional; settings: Homo sapiens
BJ [5] = test: BJ-TERT-LT-ST fibroblast viability loss – cell-based, RAS-independent, luminescence, dose response (AID 1935); format: functional; settings: Homo sapiens;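 also: BJ fibroblasts immortalized with TERT plus LT and ST oncogenes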
BJ [6] = test: BJ-TERT fibroblast viability loss – cell-based, RAS-independent, luminescence, dose response (AID 1933); format: functional; settings: Homo sapiens
BJ [7] = test: cells; format: functional, cell-based; settings: Homo sapiens
[8] = molecular target: T1, Heat shock factor protein 1 (Mus musculus, UniProt P38532); test: enhancement of HSF1-driven luciferase signal – cell-based, NIH3T3, luminescence, dose retest, confirmation (AID 435004); format: functional;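 also: stress induced by proteasome inhibitor MG132 added 30 min after compound; luciferase reporter driven by HSF1 response element in NIH3T3 cells; actives raise luminescence as potentiators of the MG132 stress response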
T1 sequence (P38532 whole entry): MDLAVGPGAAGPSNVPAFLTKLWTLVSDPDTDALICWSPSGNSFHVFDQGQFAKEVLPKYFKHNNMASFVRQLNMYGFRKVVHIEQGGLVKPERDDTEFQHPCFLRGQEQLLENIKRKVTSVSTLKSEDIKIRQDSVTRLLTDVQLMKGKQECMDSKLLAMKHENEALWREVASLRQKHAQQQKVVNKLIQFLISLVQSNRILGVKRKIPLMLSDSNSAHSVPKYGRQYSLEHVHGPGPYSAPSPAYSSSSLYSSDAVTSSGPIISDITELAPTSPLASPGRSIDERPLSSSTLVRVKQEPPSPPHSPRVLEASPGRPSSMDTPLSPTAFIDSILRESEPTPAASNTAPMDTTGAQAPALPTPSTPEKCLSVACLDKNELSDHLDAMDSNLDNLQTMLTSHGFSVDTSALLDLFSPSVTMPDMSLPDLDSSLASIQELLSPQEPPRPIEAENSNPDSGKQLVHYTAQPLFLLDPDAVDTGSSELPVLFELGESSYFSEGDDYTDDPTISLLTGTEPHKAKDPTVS

SMILES: CC(Sc1ccc(Cl)cc1)C(=O)NCc1ccc2c(c1)OCO2 (stereo not given)
- EC50 [1]: 2.94 µM (active)
- EC50 [2]: > 150 µM (inactive)

SMILES: O=C(Cn1[nH]c(=O)c2ccccc2c1=O)NCC1COc2ccccc2O1 (stereo not given)
- IC50 (H9c2): 48.7 µM (inactive)

SMILES: CCC1(CC)NC(=O)N(CC(=O)OCC(=O)Nc2ccccc2[N+](=O)[O-])C1=O
- IC50 (H9c2): 11.9 µM (active)

SMILES: CC(=O)OCC(=O)[C@@]1(O)CC[C@H]2[C@@H]3CCC4=CC(=O)CC[C@]4(C)[C@H]3C(=O)C[C@@]21C [CORTISONE ACETATE]
- AC50 [3]: 28.3 µM (active)

SMILES: O=C(CCN1C(=O)/C(=C/c2ccc(Cl)cc2)SC1=S)Nc1cccnc1
- EC50 [4]: 24.7 µM (active)
- EC50 (BJ [5]): > 150 µM (not active)
- EC50 (BJ [6]): 14.9 µM (active)
- EC50 (BJ [7]): > 150 µM (not active)

SMILES: COc1cc(NC(=O)c2c(OC)cccc2OC)ccc1NC(=O)c1cc2ccccc2o1
- IC50 (H9c2): > 79 µM (inactive)

SMILES: c1ccc(-c2cnnc(SCc3cn4cccnc4n3)n2)cc1
- EC50 [4]: 24.9 µM (active)
- EC50 (BJ [5]): > 150 µM (inconclusive)
- EC50 (BJ [6]): > 150 µM (not active)
- EC50 (BJ [7]): > 150 µM (inconclusive)

SMILES: CCc1nc2ccccc2c(C(=O)OCc2nc(O)c3ccccc3n2)c1C
- IC50 (H9c2): 5.84 µM (active)

- EC50 [8]: > 260 µM (inactive)
SMILES: COc1ccc(OC)c(N(CC(=O)N2CCC(C)CC2)S(=O)(=O)c2ccccc2)c1

- EC50 [8]: > 260 µM (inactive)
SMILES: COc1cc(C(=O)NCCc2ccc(F)cc2)ccc1OCC(=O)N1CCOCC1

- EC50 [8]: > 260 µM (inactive)
SMILES: CCCc1nc2ccc(NC(=O)c3cccs3)cc2c(=O)n1Cc1ccccc1Cl

SMILES: O=C(N/N=C/c1ccccn1)c1cc(-c2ccncc2)nc2ccccc12
- IC50 (H9c2): > 79 µM (inactive)

- EC50 [8]: > 260 µM (inactive)
SMILES: CC(C)c1ccc2c(c1)[C@H]1OCC[C@H]1[C@@H](c1cccs1)N2
